Data taken from ChEMBL document CHEMBL4507282, “Data for DCP probe BI-1950” (2021).

Assays:
[1] = biological target: Activin receptor type-2A (Homo sapiens) (UniProt P27037); conditions: Compound concentration 1000.0 nM
[2] = biological target: Aurora kinase A (Homo sapiens) (UniProt O14965); conditions: Compound concentration 1000.0 nM
[3] = biological target: Tyrosine-protein kinase Blk (Homo sapiens) (UniProt P51451); conditions: Compound concentration 1000.0 nM
[4] = biological target: Bone morphogenetic protein receptor type-1B (Homo sapiens) (UniProt O00238); conditions: Compound concentration 1000.0 nM
[5] = biological target: Bone morphogenetic protein receptor type-2 (Homo sapiens) (UniProt Q13873); conditions: Compound concentration 1000.0 nM
[6] = biological target: Calcium/calmodulin-dependent protein kinase type 1D (Homo sapiens) (UniProt Q8IU85); conditions: Compound concentration 1000.0 nM
[7] = biological target: Calcium/calmodulin-dependent protein kinase type IV (Homo sapiens) (UniProt Q16566); conditions: Compound concentration 1000.0 nM
[8] = biological target: Peripheral plasma membrane protein CASK (Homo sapiens) (UniProt O14936); conditions: Compound concentration 1000.0 nM
[9] = biological target: Cyclin-dependent kinase 4 (Homo sapiens) (UniProt P11802); conditions: Compound concentration 1000.0 nM
[10] = biological target: Serine/threonine-protein kinase Chk1 (Homo sapiens) (UniProt O14757); conditions: Compound concentration 1000.0 nM
[11] = biological target: Tyrosine-protein kinase CSK (Homo sapiens) (UniProt P41240); conditions: Compound concentration 1000.0 nM
[12] = biological target: Casein kinase I isoform epsilon (Homo sapiens) (UniProt P49674); conditions: Compound concentration 1000.0 nM
[13] = biological target: Myotonin-protein kinase (Homo sapiens) (UniProt Q09013); conditions: Compound concentration 1000.0 nM
[14] = system: Epidermal growth factor receptor (Homo sapiens), P00533 [G719C]; conditions: Compound concentration 1000.0 nM
[15] = system: Epidermal growth factor receptor (Homo sapiens), P00533 [L858R]; conditions: Compound concentration 1000.0 nM
[16] = biological target: Ephrin type-B receptor 4 (Homo sapiens) (UniProt P54760); conditions: Compound concentration 1000.0 nM
[17] = biological target: Receptor tyrosine-protein kinase erbB-3 (Homo sapiens) (UniProt P21860); conditions: Compound concentration 1000.0 nM
[18] = biological target: Mitogen-activated protein kinase 15 (Homo sapiens) (UniProt Q8TD08); conditions: Compound concentration 1000.0 nM
[19] = biological target: Fibroblast growth factor receptor 2 (Homo sapiens) (UniProt P21802); conditions: Compound concentration 1000.0 nM
[20] = biological target: Homeodomain-interacting protein kinase 3 (Homo sapiens) (UniProt Q9H422); conditions: Compound concentration 1000.0 nM
[21] = biological target: Serine/threonine-protein kinase LATS2 (Homo sapiens) (UniProt Q9NRM7); conditions: Compound concentration 1000.0 nM
[22] = biological target: Microtubule-associated serine/threonine-protein kinase 1 (Homo sapiens) (UniProt Q9Y2H9); conditions: Compound concentration 1000.0 nM
[23] = biological target: Dual specificity mitogen-activated protein kinase kinase 3 (Homo sapiens) (UniProt P46734); conditions: Compound concentration 1000.0 nM
[24] = biological target: Dual specificity mitogen-activated protein kinase kinase 5 (Homo sapiens) (UniProt Q13163); conditions: Compound concentration 1000.0 nM
[25] = biological target: Serine/threonine-protein kinase Nek2 (Homo sapiens) (UniProt P51955); conditions: Compound concentration 1000.0 nM
[26] = biological target: Phosphorylase b kinase gamma catalytic chain, skeletal muscle/heart isoform (Homo sapiens) (UniProt Q16816); conditions: Compound concentration 1000.0 nM
[27] = biological target: 1-phosphatidylinositol 3-phosphate 5-kinase (Homo sapiens) (UniProt Q9Y2I7); conditions: Compound concentration 1000.0 nM
[28] = biological target: Serine/threonine-protein kinase pim-2 (Homo sapiens) (UniProt Q9P1W9); conditions: Compound concentration 1000.0 nM
[29] = biological target: Protein kinase C theta type (Homo sapiens) (UniProt Q04759); conditions: Compound concentration 1000.0 nM
[30] = biological target: cGMP-dependent protein kinase 2 (Homo sapiens) (UniProt Q13237); conditions: Compound concentration 1000.0 nM
[31] = biological target: Interferon-induced, double-stranded RNA-activated protein kinase (Homo sapiens) (UniProt P19525); conditions: Compound concentration 1000.0 nM
[32] = system: Proto-oncogene tyrosine-protein kinase receptor Ret (Homo sapiens), P07949 [M918T]; conditions: Compound concentration 1000.0 nM
[33] = biological target: Rho-associated protein kinase 1 (Homo sapiens) (UniProt Q13464); conditions: Compound concentration 1000.0 nM
[34] = biological target: Ribosomal protein S6 kinase alpha-1 (Homo sapiens) (UniProt Q15418); conditions: Compound concentration 1000.0 nM
[35] = biological target: STE20/SPS1-related proline-alanine-rich protein kinase (Homo sapiens) (UniProt Q9UEW8); conditions: Compound concentration 1000.0 nM
[36] = biological target: Mitogen-activated protein kinase kinase kinase 20 (Homo sapiens) (UniProt Q9NYL2); conditions: Compound concentration 1000.0 nM
[37] = biological target: 5-hydroxytryptamine receptor 1D (Homo sapiens) (UniProt P28221); conditions: Compound concentration 10.0 uM
[38] = biological target: 5-hydroxytryptamine receptor 2A (Homo sapiens) (UniProt P28223); conditions: Compound concentration 10.0 uM
[39] = biological target: T1, 5-hydroxytryptamine receptor 3A (Homo sapiens) (UniProt P46098); conditions: Compound concentration 10.0 uM
T1 sequence (whole entry): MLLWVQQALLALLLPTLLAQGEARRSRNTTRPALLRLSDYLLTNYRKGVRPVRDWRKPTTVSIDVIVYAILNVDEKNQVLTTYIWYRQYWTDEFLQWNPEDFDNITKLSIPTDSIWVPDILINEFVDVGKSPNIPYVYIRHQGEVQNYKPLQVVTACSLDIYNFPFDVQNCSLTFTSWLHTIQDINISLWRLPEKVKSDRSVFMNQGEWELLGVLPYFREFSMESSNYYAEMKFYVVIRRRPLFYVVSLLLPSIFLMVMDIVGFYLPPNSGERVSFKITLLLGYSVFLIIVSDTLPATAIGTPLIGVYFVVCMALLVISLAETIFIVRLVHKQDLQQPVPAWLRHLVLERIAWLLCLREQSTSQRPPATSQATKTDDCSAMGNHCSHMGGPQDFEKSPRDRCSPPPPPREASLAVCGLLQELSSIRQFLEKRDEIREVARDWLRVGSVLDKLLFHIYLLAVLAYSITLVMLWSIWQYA

Sequence of Tyrosine-protein kinase CSK (Homo sapiens) (P41240 2-450 limits assumed): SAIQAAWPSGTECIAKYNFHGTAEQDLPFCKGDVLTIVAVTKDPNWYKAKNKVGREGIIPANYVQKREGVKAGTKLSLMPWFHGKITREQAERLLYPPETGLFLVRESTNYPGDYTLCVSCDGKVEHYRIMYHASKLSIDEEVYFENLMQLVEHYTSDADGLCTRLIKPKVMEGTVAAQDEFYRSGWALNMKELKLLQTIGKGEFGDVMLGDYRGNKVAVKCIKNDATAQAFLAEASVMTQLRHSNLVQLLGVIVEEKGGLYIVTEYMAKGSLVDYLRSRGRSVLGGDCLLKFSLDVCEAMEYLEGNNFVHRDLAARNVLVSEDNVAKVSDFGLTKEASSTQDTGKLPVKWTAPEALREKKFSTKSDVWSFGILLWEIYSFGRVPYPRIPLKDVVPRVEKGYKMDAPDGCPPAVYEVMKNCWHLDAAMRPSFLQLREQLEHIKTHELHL
Sequence of Calcium/calmodulin-dependent protein kinase type IV (Homo sapiens) (Q16566 whole entry): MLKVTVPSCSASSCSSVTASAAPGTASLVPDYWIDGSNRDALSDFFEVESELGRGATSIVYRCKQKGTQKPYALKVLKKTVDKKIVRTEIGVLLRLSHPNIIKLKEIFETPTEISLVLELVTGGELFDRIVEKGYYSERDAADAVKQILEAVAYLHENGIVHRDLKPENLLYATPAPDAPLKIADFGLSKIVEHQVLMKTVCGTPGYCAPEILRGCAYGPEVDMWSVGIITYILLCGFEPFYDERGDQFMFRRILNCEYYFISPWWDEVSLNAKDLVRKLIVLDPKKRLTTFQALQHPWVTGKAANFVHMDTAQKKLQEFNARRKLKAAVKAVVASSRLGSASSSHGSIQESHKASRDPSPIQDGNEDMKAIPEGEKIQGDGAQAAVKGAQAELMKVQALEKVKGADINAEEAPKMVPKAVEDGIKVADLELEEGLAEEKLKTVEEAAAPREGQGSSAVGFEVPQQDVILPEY
Sequence of 5-hydroxytryptamine receptor 1D (Homo sapiens) (P28221 whole entry): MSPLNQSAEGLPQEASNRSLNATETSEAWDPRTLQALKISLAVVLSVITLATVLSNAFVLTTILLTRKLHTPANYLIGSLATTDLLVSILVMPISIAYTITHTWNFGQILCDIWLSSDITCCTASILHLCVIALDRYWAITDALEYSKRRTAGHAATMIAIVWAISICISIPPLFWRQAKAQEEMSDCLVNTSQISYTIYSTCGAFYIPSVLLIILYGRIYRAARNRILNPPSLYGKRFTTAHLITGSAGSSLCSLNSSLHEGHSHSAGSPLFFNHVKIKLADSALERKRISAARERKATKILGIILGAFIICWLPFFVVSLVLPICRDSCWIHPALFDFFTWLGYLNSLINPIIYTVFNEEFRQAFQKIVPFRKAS
Sequence of Dual specificity mitogen-activated protein kinase kinase 3 (Homo sapiens) (P46734 whole entry): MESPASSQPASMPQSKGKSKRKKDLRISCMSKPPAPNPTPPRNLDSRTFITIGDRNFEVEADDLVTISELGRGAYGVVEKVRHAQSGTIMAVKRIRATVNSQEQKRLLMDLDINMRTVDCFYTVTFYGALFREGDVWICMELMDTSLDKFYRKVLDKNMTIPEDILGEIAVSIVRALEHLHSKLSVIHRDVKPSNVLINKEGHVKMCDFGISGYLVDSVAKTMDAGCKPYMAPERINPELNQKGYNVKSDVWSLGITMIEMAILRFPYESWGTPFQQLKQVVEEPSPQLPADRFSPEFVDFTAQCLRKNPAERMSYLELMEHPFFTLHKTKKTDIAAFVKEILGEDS
Sequence of Mitogen-activated protein kinase 15 (Homo sapiens) (Q8TD08 whole entry): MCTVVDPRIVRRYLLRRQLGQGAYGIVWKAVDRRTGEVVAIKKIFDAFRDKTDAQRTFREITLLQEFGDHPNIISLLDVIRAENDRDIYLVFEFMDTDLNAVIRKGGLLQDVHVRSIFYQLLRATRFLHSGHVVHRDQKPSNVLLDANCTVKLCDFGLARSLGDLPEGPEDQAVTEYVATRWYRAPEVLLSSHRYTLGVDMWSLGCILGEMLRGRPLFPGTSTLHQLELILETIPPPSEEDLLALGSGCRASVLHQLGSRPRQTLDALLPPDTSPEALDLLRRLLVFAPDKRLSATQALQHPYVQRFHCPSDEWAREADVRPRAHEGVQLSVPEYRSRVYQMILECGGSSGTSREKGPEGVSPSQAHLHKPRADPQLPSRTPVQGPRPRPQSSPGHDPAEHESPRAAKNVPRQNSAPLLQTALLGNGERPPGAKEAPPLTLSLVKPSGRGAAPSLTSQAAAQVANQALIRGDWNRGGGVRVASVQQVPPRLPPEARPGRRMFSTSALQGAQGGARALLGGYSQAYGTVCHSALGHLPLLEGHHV
Sequence of Fibroblast growth factor receptor 2 (Homo sapiens) (P21802 22-821 limits assumed): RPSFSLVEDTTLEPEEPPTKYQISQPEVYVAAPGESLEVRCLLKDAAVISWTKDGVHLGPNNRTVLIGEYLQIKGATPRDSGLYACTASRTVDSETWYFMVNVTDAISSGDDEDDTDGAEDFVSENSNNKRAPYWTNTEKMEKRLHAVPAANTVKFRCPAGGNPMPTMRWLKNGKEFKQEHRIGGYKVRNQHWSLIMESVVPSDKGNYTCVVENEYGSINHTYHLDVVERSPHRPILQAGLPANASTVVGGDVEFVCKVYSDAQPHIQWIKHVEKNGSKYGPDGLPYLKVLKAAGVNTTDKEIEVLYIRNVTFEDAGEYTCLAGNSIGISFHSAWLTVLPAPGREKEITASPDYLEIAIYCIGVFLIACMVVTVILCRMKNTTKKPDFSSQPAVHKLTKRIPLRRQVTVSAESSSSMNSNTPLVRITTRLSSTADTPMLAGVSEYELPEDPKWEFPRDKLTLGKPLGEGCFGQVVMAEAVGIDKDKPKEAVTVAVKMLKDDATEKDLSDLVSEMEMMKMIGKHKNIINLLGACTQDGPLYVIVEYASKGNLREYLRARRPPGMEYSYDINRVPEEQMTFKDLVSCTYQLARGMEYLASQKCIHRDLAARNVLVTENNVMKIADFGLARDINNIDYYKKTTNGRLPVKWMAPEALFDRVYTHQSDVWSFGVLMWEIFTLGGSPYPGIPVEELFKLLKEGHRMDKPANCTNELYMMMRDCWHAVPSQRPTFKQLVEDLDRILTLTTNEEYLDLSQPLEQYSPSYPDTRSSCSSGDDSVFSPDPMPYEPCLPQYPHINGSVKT
Sequence of Microtubule-associated serine/threonine-protein kinase 1 (Homo sapiens) (Q9Y2H9 whole entry, looked up): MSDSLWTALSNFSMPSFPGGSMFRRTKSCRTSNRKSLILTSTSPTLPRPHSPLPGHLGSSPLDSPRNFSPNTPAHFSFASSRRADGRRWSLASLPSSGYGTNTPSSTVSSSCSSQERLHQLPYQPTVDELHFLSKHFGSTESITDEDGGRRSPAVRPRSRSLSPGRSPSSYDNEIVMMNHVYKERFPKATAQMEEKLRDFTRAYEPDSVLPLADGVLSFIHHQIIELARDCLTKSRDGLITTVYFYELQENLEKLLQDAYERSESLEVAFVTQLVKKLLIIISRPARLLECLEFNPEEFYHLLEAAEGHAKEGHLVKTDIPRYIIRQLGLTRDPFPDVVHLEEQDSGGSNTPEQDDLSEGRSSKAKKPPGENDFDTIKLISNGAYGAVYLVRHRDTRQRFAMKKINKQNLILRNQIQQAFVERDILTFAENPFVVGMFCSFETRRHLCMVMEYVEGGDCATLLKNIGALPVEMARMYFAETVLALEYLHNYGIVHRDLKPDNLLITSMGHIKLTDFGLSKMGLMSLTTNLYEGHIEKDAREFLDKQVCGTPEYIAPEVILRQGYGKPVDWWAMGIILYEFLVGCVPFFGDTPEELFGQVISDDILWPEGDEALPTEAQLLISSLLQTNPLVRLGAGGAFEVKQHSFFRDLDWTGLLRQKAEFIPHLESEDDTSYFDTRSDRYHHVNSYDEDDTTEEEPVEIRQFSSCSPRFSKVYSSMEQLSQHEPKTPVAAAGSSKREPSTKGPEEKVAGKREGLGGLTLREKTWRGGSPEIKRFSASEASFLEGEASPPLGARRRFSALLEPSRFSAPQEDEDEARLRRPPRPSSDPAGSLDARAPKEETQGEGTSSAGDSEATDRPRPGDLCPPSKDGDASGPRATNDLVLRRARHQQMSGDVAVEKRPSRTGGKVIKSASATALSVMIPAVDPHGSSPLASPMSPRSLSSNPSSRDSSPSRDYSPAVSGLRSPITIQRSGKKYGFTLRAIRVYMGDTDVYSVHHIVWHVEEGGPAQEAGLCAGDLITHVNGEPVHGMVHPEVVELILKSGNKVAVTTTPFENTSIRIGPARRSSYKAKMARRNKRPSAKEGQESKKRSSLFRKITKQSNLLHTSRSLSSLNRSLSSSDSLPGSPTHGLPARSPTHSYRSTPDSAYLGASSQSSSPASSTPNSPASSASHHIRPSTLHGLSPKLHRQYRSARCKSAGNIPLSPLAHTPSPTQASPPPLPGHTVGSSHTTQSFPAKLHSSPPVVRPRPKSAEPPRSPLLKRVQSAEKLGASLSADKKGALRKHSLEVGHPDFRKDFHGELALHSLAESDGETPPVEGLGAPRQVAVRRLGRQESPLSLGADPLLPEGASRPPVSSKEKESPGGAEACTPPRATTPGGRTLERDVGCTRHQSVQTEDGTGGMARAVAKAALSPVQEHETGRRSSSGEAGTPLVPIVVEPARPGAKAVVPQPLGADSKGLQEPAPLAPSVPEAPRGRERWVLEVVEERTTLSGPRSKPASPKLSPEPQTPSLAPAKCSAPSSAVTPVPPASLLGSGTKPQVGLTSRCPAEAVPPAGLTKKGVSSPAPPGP
Sequence of Aurora kinase A (Homo sapiens) (O14965 whole entry): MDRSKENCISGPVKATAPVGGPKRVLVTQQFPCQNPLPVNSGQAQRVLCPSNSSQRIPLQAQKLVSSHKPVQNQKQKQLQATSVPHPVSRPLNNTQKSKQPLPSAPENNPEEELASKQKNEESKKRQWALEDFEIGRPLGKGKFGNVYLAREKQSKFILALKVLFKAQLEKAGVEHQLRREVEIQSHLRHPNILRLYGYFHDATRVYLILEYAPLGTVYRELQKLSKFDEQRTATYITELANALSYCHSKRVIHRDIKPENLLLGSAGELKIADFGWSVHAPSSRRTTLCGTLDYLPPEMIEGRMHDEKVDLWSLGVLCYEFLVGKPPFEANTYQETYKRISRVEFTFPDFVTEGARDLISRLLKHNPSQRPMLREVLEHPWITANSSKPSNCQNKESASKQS

SMILES | residual activity [1] [%] | residual activity [2] [%] | residual activity [3] [%] | residual activity [4] [%] | residual activity [5] [%] | residual activity [6] [%] | residual activity [7] [%] | residual activity [8] [%] | residual activity [9] [%] | residual activity [10] [%] | residual activity [11] [%] | residual activity [12] [%] | residual activity [13] [%] | residual activity [14] [%] | residual activity [15] [%] | residual activity [16] [%] | residual activity [17] [%] | residual activity [18] [%] | residual activity [19] [%] | residual activity [20] [%] | further results
C[C@@]1(Cc2ccc(C#N)cc2)C(=O)N(c2cc(Cl)cc(Cl)c2)c2ncc(C(=O)NC3(c4nc(C5CCC5)no4)CC3)n21 [BI 9446] | 92 | 92 | 100 | 100 | 100 | 100 | 100 | 100 | 93 | 90 | 98 | 100 | 100 | 100 | 100 | 100 | 96 | 100 | 100 | 100 | residual activity [21]: 92%; residual activity [22]: 100%; residual activity [23]: 89%; residual activity [24]: 100%; residual activity [25]: 83%; residual activity [26]: 100%; residual activity [27]: 100%; residual activity [28]: 98%; residual activity [29]: 98%; residual activity [30]: 100%; residual activity [31]: 56%; residual activity [32]: 100%; residual activity [33]: 100%; residual activity [34]: 100%; residual activity [35]: 91%; residual activity [36]: 100%; inhibition [37]: 22.4%; inhibition [38]: 31.9%; inhibition [39]: 17.9%
C[C@H](NC(=O)c1cnc2n1[C@](C)(Cc1ccc(C#N)cc1)C(=O)N2c1cc(Cl)c(F)c(Cl)c1)C(=O)NC1(c2ccccn2)CC1 [BI 1950] | 92 | 100 | 98 | 99 | 100 | 99 | 100 | 100 | 100 | 100 | 100 | 82 | 67 | 100 | 100 | 100 | 100 | 100 | 100 | 100 | residual activity [21]: 100%; residual activity [22]: 100%; residual activity [23]: 80%; residual activity [24]: 100%; residual activity [25]: 95%; residual activity [26]: 100%; residual activity [27]: 100%; residual activity [28]: 100%; residual activity [29]: 100%; residual activity [30]: 85%; residual activity [31]: 34%; residual activity [32]: 100%; residual activity [33]: 100%; residual activity [34]: 100%; residual activity [35]: 24%; residual activity [36]: 100%; inhibition [37]: 12%; inhibition [38]: 9.3%; inhibition [39]: -2.51%
